One assay has as its target T1, SIRT2 (Homo sapiens, UniProt Q8IXJ6).
T1 sequence (Q8IXJ6 1-389): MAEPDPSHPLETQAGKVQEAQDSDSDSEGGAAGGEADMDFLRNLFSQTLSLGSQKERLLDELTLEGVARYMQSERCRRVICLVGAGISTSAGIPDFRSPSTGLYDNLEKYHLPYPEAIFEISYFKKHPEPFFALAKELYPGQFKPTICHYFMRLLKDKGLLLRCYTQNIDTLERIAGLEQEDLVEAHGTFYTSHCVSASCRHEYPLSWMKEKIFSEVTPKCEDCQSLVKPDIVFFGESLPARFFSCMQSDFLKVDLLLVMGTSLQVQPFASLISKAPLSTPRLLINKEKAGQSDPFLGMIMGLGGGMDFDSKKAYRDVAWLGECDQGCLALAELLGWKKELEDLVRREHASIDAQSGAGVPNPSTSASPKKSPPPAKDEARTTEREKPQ
In words: mass spectrometry based assay to identify modulators of SIRT2 inhibition. Type of assay: biochemical. From the text:
A mass spectrometry based assay was used to identify modulators of SIRT2 inhibition. […] The peptide is labeled with the fluorophore 5TMR (excitation 540 nm/emission 580 nm) at the C-terminus. The sequence of the peptide substrate is based on p53 with several modifications. In addition, the methionine residue naturally present in the sequence was replaced with the norleucine because the methionine may be susceptible to oxidation during synthesis and purification.
Test compounds may be added to the reaction as described above. The SirT2 gene is cloned into a T7-promoter containing vector and transformed into BL21(DE3). After the 30 minute incubation with SIRT2, 10 μL of 10% formic acid is added to stop the reaction. Reactions are sealed and frozen for later mass spec analysis. Determination of the mass of the substrate peptide allows for precise determination of the degree of acetylation (i.e. starting material) as compared to deacetylated peptide (product).
(§1) This timepoint is the same as that used for test compounds and, within the linear range, the endpoint represents a change in velocity.
For the above assay, SIRT2 protein was expressed and purified as follows. The SirT2 gene was cloned into a T7-promoter containing vector and transformed into BL21(DE3) with chaperone plasmid. The protein was expressed by induction with 0.3 mM IPTG as an N-terminal His-tag fusion protein at 18° C. overnight and harvested at 30,000×g. Cells were lysed with sonication in lysis buffer (50 mM Tris-HCl, 10% glycerol, 300 mM NaCl, pH 7.8) for 10 min. The protein was purified over a Ni-NTA column (GE Healthcare) and eluted with lysis buffer containing 100 to 250 mM imidazole. Fractions containing target protein were pooled and TEV protease (Invitrogen) was added to the protein and incubated at 4° C. overnight in lysis buffer to remove the N-terminal His tag. The treated sample was added back on Ni-NTA column. Target protein was obtained by eluting with lysis buffer with 5 mM imidazole and loaded onto the Q-Sepharose F.F. column. The flow-through fraction of Q-Sepharose F.F. column was then directly re-adsorbed on the SP-Sepharose F.F. column and eluted with 20 mM Tris-HCl, 100 mM NaCl, pH 7.8. The protein was concentrated with 50 ml Amicon Ultra centrifugal-filter device (Millipore), then loaded on S-200 gel filtration column and eluted with 20 mM Tris-HCl, 200 mM NaCl, pH 8.0. The protein was aliquoted and frozen at −80° C. until further use.

In the next assay the target is T2, SIRT1 (Homo sapiens, UniProt Q96EB6).
T2 sequence (Q96EB6 1-747): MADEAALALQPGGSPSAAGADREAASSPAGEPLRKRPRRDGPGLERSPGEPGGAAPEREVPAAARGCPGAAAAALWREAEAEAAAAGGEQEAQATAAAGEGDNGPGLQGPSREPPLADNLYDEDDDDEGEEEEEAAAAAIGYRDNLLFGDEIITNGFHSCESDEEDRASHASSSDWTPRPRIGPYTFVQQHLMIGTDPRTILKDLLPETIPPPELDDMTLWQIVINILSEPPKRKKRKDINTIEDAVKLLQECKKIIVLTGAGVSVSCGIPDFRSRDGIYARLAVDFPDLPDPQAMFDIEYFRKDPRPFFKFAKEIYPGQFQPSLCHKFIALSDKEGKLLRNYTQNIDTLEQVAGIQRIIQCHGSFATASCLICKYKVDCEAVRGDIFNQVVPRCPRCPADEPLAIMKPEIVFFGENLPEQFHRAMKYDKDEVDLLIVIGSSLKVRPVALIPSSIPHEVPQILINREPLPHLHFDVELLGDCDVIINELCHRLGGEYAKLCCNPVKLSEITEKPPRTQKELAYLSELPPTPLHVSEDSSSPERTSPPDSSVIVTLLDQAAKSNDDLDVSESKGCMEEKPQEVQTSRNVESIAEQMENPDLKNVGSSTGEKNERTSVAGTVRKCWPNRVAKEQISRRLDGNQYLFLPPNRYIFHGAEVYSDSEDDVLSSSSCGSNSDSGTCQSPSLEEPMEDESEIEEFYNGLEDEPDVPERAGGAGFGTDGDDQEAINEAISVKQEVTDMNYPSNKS
In words: mass spectrometry based assay to identify modulators of SIRT1 activity. Type of assay: biochemical. Conditions: for Emax: 25 min, percent maximum fold activation of SIRT1, read-out: SIRT1 % FOLD ACT.; for EC1.5 (concentration for 1.5-fold activation): concentration for 1.5-fold activation of SIRT1 deacetylase, 0.5 μM peptide substrate, 120 μM βNAD+, 10 nM SIRT1, 25 min at 25° C.
Source text: A mass spectrometry based assay was used to identify modulators of SIRT1 activity. […] The peptide is labeled with the fluorophore 5TMR (excitation 540 nm/emission 580 nm) at the C-terminus. The sequence of the peptide substrate is based on p53 with several modifications. In addition, the methionine residue naturally present in the sequence was replaced with the norleucine because the methionine may be susceptible to oxidation during synthesis and purification.
Test compounds may be added to the reaction as described above. The SirT1 gene is cloned into a T7-promoter containing vector and transformed into BL21(DE3). After the 25 minute incubation with SIRT1, 10 μL of 10% formic acid is added to stop the reaction. Reactions are sealed and frozen for later mass spec analysis. Determination of the mass of the substrate peptide allows for precise determination of the degree of acetylation (i.e. starting material) as compared to deacetylated peptide (product).
as §1
For the above assay, SIRT1 protein was expressed and purified as follows. The SirT1 gene was cloned into a T7-promoter containing vector and transformed into BL21(DE3). The protein was expressed by induction with 1 mM IPTG as an N-terminal His-tag fusion protein at 18° C. overnight and harvested at 30,000×g. Cells were lysed with lysozyme in lysis buffer (50 mM Tris-HCl, 2 mM Tris[2-carboxyethyl]phosphine (TCEP), 10 μM ZnCl2, 200 mM NaCl) and further treated with sonication for 10 min for complete lysis. The protein was purified over a Ni-NTA column (Amersham) and fractions containing pure protein were pooled, concentrated and run over a sizing column ([…]). The peak containing soluble protein was collected and run on an Ion-exchange column (MonoQ). Gradient elution (200 mM-500 mM NaCl) yielded pure protein. This protein was concentrated and dialyzed against dialysis buffer (20 mM Tris-HCl, 2 mM TCEP) overnight. The protein was aliquoted and frozen at −80° C. until further use.

The mark [1] stands for this setting: 2.68 μM peptide substrate, 135 μM βNAD+, 50 nM SIRT2, 30 min at room temperature, read-out: SIRT2 IC50 UM.

Where two headings read alike, the source gives them in different places.

For orientation: IC50 means the concentration at which inhibition is half-maximal. Regarding `Cc1nc2cccc(NC(=O)c3cscn3)c2c(=O)n1-c1cccc(C(F)(F)F)c1` [Compound 1, N-(2-methyl-4-oxo-3-(3-(trifluoromethyl)phenyl)-3,4-dihydroquinazolin-5-yl)thiazole-4-carboxamide], the IC50 at SIRT2 (setting [1]) is < 10 µM.
In the case of `Cc1nc2cccc(NC(=O)c3cnccn3)c2c(=O)n1-c1cccc(C(F)(F)F)c1` [Compound 2, N-(2-methyl-4-oxo-3-(3-(trifluoromethyl)phenyl)-3,4-dihydroquinazolin-5-yl)pyrazine-2-carboxamide], the Emax at SIRT1 was > 150%. Also, at SIRT1 (read-out: SIRT1 EC1.5 µM), the EC1.5 (concentration for 1.5-fold activation) was < 50 µM. Further, at SIRT2, the IC50 was in the range of 10 to 50 µM.
Turning to `Cc1nc2cccc(NC(=O)c3cscn3)c2c(=O)n1-c1cccc(OC(F)(F)F)c1` [Compound 3, N-(2-methyl-4-oxo-3-(3-(trifluoromethoxy)phenyl)-3,4-dihydroquinazolin-5-yl)thiazole-4-carboxamide], the Emax at SIRT1 is < 150%. Besides, the EC1.5 (concentration for 1.5-fold activation) at SIRT1 (read-out: SIRT1 EC1.5 UM) was > 50 µM. Further, the IC50 at SIRT2 (setting [1]) is < 10 µM.
As for `Cc1nc2cccc(NC(=O)c3cnccn3)c2c(=O)n1-c1cccc(OC(F)(F)F)c1` [Compound 4, N-(2-methyl-4-oxo-3-(3-(trifluoromethoxy)phenyl)-3,4-dihydroquinazolin-5-yl)pyrazine-2-carboxamide], the Emax at SIRT1 was > 150%. For the same compound, the EC1.5 (concentration for 1.5-fold activation) on SIRT1 (read-out: SIRT1 EC1.5 UM) is < 50 µM. Further, the IC50 on SIRT2 (setting [1]) was 10 to 50 µM.
The like results for `Cc1nc2cccc(NC(=O)Cc3cccnc3)c2c(=O)n1-c1cccc(OC(F)(F)F)c1` [Compound 5, N-(2-methyl-4-oxo-3-(3-(trifluoromethoxy)phenyl)-3,4-dihydroquinazolin-5-yl)-2-(pyridin-3-yl)acetamide] were, in that order, < 150%, > 50 µM and 10 to 50 µM.
On to `Cc1nc2cccc(NC(=O)c3cccc(OCC(O)CO)n3)c2c(=O)n1-c1cccc(C(F)(F)F)c1` (stereo not drawn) [Compound 6, 6-(2,3-dihydroxypropoxy)-N-(2-methyl-4-oxo-3-(3-(trifluoromethyl)phenyl)-3,4-dihydroquinazolin-5-yl)picolinamide], for which the Emax at SIRT1 was > 150%. Besides, the EC1.5 (concentration for 1.5-fold activation) on SIRT1 (read-out: SIRT1 EC1.5 µM) was < 50 µM.
On to `Cc1nc2cccc(NC(=O)c3cccc(CN4CCOCC4)n3)c2c(=O)n1-c1cccc(C(F)(F)F)c1` [Compound 7, N-(2-methyl-4-oxo-3-(3-(trifluoromethyl)phenyl)-3,4-dihydroquinazolin-5-yl)-6-(morpholinomethyl)picolinamide], for which, on SIRT1, the Emax was > 150%. The EC1.5 (concentration for 1.5-fold activation) on SIRT1 (read-out: SIRT1 EC1.5 UM) is < 50 µM.
The like results for `Cc1nc2cccc(NC(=O)c3cscn3)c2c(=O)n1-c1cccc(C(F)(F)F)c1` [Compound 8, N-(2-methyl-4-oxo-3-(3-(trifluoromethyl)phenyl)-3,4-dihydroquinazolin-5-yl)thiazole-4-carboxamide] were, in that order, > 150% and < 50 µM.
With `Cc1nc2cccc(NC(=O)c3cccc(OCC(O)CO)n3)c2c(=O)n1-c1cccc(OC(F)(F)F)c1` (stereo not drawn) [Compound 9, 6-(2,3-dihydroxypropoxy)-N-(2-methyl-4-oxo-3-(3-(trifluoromethoxy)phenyl)-3,4-dihydroquinazolin-5-yl)picolinamide], the Emax on SIRT1 is > 150%. In addition, at SIRT1 (read-out: SIRT1 EC1.5 UM), the EC1.5 (concentration for 1.5-fold activation) was < 50 µM.

Values taken from patent US20120165330A1, “QUINAZOLINONE AND RELATED ANALOGS AS SIRTUIN MODULATORS” (Sirtris Pharmaceuticals, Inc., priority 2010, published 2012).
